Patent US10201558B2, “Compositions of selenoorganic compounds and methods of use thereof” (Alltech, Inc., priority 2014, dated 2019)
“Also recorded” adds a separate entry of the source.

Legend:
[1] = test system: insoluble Aβ1-42; experiment: ELISA of insoluble (FA-soluble) Aβ1-42 in the brains of APP/PS1 mice; assay type: in vivo, mouse; conditions: diet with 1 ppm Se from Compound C, 6 to 12 months of age, vs control mice
Experimental: Male APPΔNLh/ΔNLh×PS1P246 L/246 L knock-in model mice of Alzheimer's disease (abbreviated APP/PS1) were genotyped using standard primers for human APP (Amyloid Precursor Protein) and human PS1 (PSEN1). These APP/PS1 mice starting at the age of 6 months, were fed either a control diet containing normal levels of selenium (0.3 ppm from plant and inorganic selenium salt sources) or an experimental diet containing Compound C (the control diet to which was added 1 ppm Se from Compound C) for 6 months.
(§1) At 12 months of age, the mice were euthanized and the brains quickly removed, the cerebellum isolated and the hemispheres snap-frozen in liquid nitrogen and then stored at −80° C. for further immunohistochemistry (IHC), protein and RNA analysis. All procedures conducted on these animal studies were pre-approved by the University of Kentucky IACUC committee.
Frozen hemispheres of control- and Compound C-treated APP/PS1 mice were weighed and homogenized in PBS buffer. Insoluble Aβ fractions (formic acid (FA)-soluble fractions) were extracted from the homogenates using standard serial extraction protocols as described previously (Lovell et al, Free Radic Biol Med 2009; 46:1527-33) Insoluble Aβ1-42 levels (in the FA soluble fraction) were determined using standard sandwich ELISAs (Invitrogen), according to the manufacturer's procedure. […]

[2] = test system: APOE4; experiment: Western blot of APOE4 protein in IMR-32 cells; assay type: cell-based, human; conditions: 150 ppb
Experimental: (§2) IMR-32 cells were seeded on 6-well plates and then treated with control and various compounds for 6 hours and 24 hours, as described above. After treatments, cells were rinsed with ice-cold PBS and lysed in ice-cold RIPA buffer containing complete proteinase and phosphatase inhibitors (Thermo-Fisher Scientific, Waltham, Mass.) on ice for 30 min Cell lysates were collected using a cell scraper and transfer pipette and then centrifuged at 12000×g for 30 min at 4° C. to remove the DNA pellet and obtain the protein extract. Protein levels in the supernatant of these cell lysates were determined using the Pierce Micro-BCA protein assay kit (Thermo Scientific-Piece Biotechnology, Rockford, Ill.) according to the manufacturer's protocol […]
(§3) Positive signals on the membrane blots were detected using Amersham's enhanced chemiluminescence (ECL) Western Blotting Prime Detection reagents (GE healthcare Lifescience, Pittsburgh, Pa.). Images of these luminescence signals on the membrane blots were captured using the LI-COR Odyssey Fc Image system (Lincoln, Nebr.). […] Protein band densities in the Western blots were determined using the Li—COR Image studio software or NIH ImageJ software, and then normalized by ACTB protein level in each sample. […]

[3] = test system: phosphorylated Foxo4 (threonine 28); experiment: Western blot of phosphorylated Foxo4 in APP/PS1 mouse brains; assay type: in vivo; conditions: APP/PS1 mouse brain, Compound C diet vs control diet
Experimental: Male APPΔNLh/ΔNLh×PS1P246 L/246 L knock-in model mice of Alzheimer's disease (abbreviated APP/PS1) were genotyped using standard primers for human APP (Amyloid Precursor Protein) and human PS1 (PSEN1).
as §1
Frozen hemispheres of control- and Compound C-treated APP/PS1 mice were weighed and homogenized in PBS buffer, and then subsequently extracted with RIPA buffer (Sigma) containing complete proteinase and phosphatase inhibitors (Fisher Scientific). Protein levels in the samples were determined by micro-BCA protein analysis according to the manufacturer's protocol. […] Positive signals on the membrane blots were detected using Amersham's enhanced chemiluminescence Western Blotting Prime Detection reagents (GE healthcare Lifescience, Pittsburgh, Pa.). Images of these luminescence signals on the membrane blots were captured using the LI-COR Odyssey Fc Image system (Lincoln, Nebr.). […]

[4] = test system: PSEN1; experiment: Western blot of PSEN1 protein in IMR-32 cells; assay type: cell-based, human; conditions: 150 ppb, 24 hours
Experimental: as §2, §3

C[Se]C[C@H]1O[C@@H](n2cnc3c(N)ncnc32)C(O)C1O (stereo in doubt) [Compound C, 5′-deoxy-5′-methylselenoadenosine]
reduction of FA-soluble Aβ1-42 levels in the brains [1]: about 30% | APOE4 protein levels ([2]; 6 hours): not for 6 hour | APOE4 protein levels ([2]; 24 hours): markedly decreased | phosphorylated Foxo4 at threonine 28 (pFoxo4) protein [3]: inhibition; also recorded: less abundant; also recorded: significantly decreased | PSEN1 protein levels [4]: significant reduction
